Measurements from patent US20230042936A1, “PYRIDO[2,3-d]PYRIMIDIN-7(8H)-ONES AS CDK INHIBITORS” (PROSENESTAR LLC, priority 2020, published 2023).
Where two headings read alike, the source gives them in different places.

Experiments:
CDK3/CycE1 = CDK3/CycE1 (Homo sapiens, UniProt Q00526); assay: Kinase profiling; type: biochemical; details: 10 semi-logarithmic dilutions from 50 μM, singlicate
AKT1 aa1-480 = molecular target: T1, AKT1 aa1-480 (Homo sapiens, UniProt P31749); assay: Kinase profiling; type: biochemical; details: 10 semi-logarithmic dilutions from 50 μM, singlicate
T1 construct: AKT1 aa1-480

CDK4/CycD3 = CDK4/CycD3 (Homo sapiens, UniProt P11802); assay: Kinase profiling; type: biochemical
PCTAIRE1/CycY = PCTAIRE1/CycY (Homo sapiens, UniProt Q00536); assay: Kinase profiling; type: biochemical; details: 10 semi-logarithmic dilutions from 50 μM, singlicate
CDK3/CycC = CDK3/CycC (Homo sapiens, UniProt Q00526); assay: Kinase profiling; type: biochemical; details: 10 semi-logarithmic dilutions from 50 μM, singlicate
HIPK2 = HIPK2 (Homo sapiens, UniProt Q9H2X6); assay: Kinase profiling; type: biochemical; details: 10 semi-logarithmic dilutions from 50 μM, singlicate; read-out: IC50 HIPK2
CDK19/CycC = CDK19/CycC (Homo sapiens, UniProt Q9BWU1); assay: Kinase profiling; type: biochemical; details: 10 semi-logarithmic dilutions from 50 μM, singlicate
CDK2/CycA2 = CDK2/CycA2 (Homo sapiens, UniProt P24941); assay: Kinase profiling; type: biochemical
CDK2/CycE1 = CDK2/CycE1 (Homo sapiens, UniProt P24941); assay: Kinase profiling; type: biochemical
CDK8/CycC = CDK8/CycC (Homo sapiens, UniProt P49336); assay: Kinase profiling; type: biochemical; details: 10 semi-logarithmic dilutions from 50 μM, singlicate
CDK4/CycD1 = CDK4/CycD1 (Homo sapiens, UniProt P11802); assay: Kinase profiling; type: biochemical; details: 10 semi-logarithmic dilutions from 50 μM, singlicate
CDK1/CycA2 = CDK1/CycA2 (Homo sapiens, UniProt P06493); assay: Kinase profiling; type: biochemical
DYRK1A = DYRK1A (Homo sapiens, UniProt Q13627); assay: Kinase profiling; type: biochemical; details: 10 semi-logarithmic dilutions from 50 μM, singlicate
[1] = test system: MDA-MB-231 human breast cancer cells; assay: Cell cycle analysis (DNA content, flow cytometry); type: cell-based; details: GI50 concentration; FIG. 1
Method: FIG. 1 depicts DNA content profiles of MDA-MB-231 human breast cancer cells treated with subject compounds or commercial CDK inhibitors, showing the percentage of cells at the different cell cycle phases after 48 hours of the treatments indicated. (n=6 technical replicates).
Cells were collected by trypsinization, washed with PBS and fixed with cold 70% ethanol. Cells were treated with 250 μg/ml RNase (Qiagen) for 30 minutes at 37° C. and stained with 10 μg/ml Propidium Iodide (Sigma). Cell cycle was analyzed by flow cytometry using a LSR Fortessa Analyzer. Cell cycle profiles were generated and analyzed with FlowJo software.
Cells were collected by tripsinization at several times after treatment with the indicated compounds and, then, fixed with cold 70% Ethanol. DNA content was determined by staining with propidium iodide (10 μg/ml, Sigma Aldrich). Data acquisition was performed with a LSR Fortessa analyzer (BD Biosciences) and analysed using FlowJo software.

CDK7/CycH/MAT1 = CDK7/CycH/MAT1 (Homo sapiens, UniProt P50613); assay: Kinase profiling; type: biochemical; details: 10 semi-logarithmic dilutions from 50 μM, singlicate
[2] = test system: U87MG glioblastoma cell line; assay: Proliferation assay: determination of GI50; type: cell-based, human; details: Table 3, 48 h, n = 3 independent experiments, read-out: GI50 U87MG
Method: (§1) The following human tumor cell lines, all Retinoblastoma (Rb)-proficient, were used in this study: MDA-MB231 (breast cancer), MDA-MB453 (breast cancer), U87MG (glioblastoma) and H460 (lung cancer). MDA-MB468 (breast cancer) and SW1783 (glioblastoma) Rb-deficient cells were also included in the study, as well as the MCF10A non-transformed mammary epithelial cell line. Tumor cell lines were maintained in DMEM or RPMI-1640 medium, depending on the cell line, supplemented with 10% FBS. MCF10A cells were grown in complete mammary epithelial growth medium (MEGM, Lonza). Cell lines were authenticated by short tandem repeat (STR) loci profiling with the GenePrint® 10 System (Promega).
(§2) All human cancer cell lines (Table 2) were obtained from the American Type Culture Collection, and were maintained in DMEM (Hyclone) or RPMI-1640 medium (Sigma) supplemented with 10% fetal bovine serum (Sigma). Non-transformed MCF10 cell line was maintained in MEGM Mammary Epithelial Cell Growth Medium (Lonza). Immortalized mouse embryonic fibroblasts (MEFs) were maintained in DMEM with 10% fetal bovine serum.
(§3) 48 h later cells were fixed with PFA 4% for 15 minutes, stained with 10 μg/ml Hoechst 33342 (Molecular Probes, Thermo Fisher) for 30 minutes and washed twice with PBS. Cells were imaged in a high content screening system (Opera Phoenix™, Perkin Elmer) using a 20× dry objective (30 fields/well). Cell counts were determined by the Opera software (Perkin Elmer) and data were further processed with SPSS software. GI50 was calculated by estimating the absolute IC50 using dose-response inhibition tool in Prism6 (Graphpad Software Inc.).

[3] = test system: MCF10 non-transformed mammary epithelial cell line; assay: Proliferation assay: determination of GI50; type: cell-based, human; details: Table 3, 48 h, n = 2 independent experiments
Method: as §1, §2, §3

[4] = test system: MDA-MB-231 breast carcinoma cell line; assay: Proliferation assay: determination of GI50; type: cell-based, human; details: Table 3, 48 h, n = 3 independent experiments, read-out: GI50 MDA-MB231
Method: as §1, §2, §3

[5] = test system: H460 lung carcinoma cell line; assay: Proliferation assay: determination of GI50; type: cell-based, human; details: Table 3, 48 h, n = 2 independent experiments
Method: as §1, §2, §3

CDK5/p35NCK = CDK5/p35NCK (Homo sapiens, UniProt Q00535); assay: Kinase profiling; type: biochemical
CDK6/CycD1 = CDK6/CycD1 (Homo sapiens, UniProt Q00534); assay: Kinase profiling; type: biochemical; details: 10 semi-logarithmic dilutions from 50 μM, singlicate
ERK1 = ERK1 (Homo sapiens, UniProt P27361); assay: Kinase profiling; type: biochemical; details: 10 semi-logarithmic dilutions from 50 μM, singlicate
CDK5/p25NCK = CDK5/p25NCK (Homo sapiens, UniProt Q00535); assay: Kinase profiling; type: biochemical
CDK12wt/CycK = CDK12wt/CycK (Homo sapiens, UniProt Q9NYV4); assay: Kinase profiling; type: biochemical; details: 10 semi-logarithmic dilutions from 50 μM, singlicate
[6] = 10 semi-logarithmic dilutions from 50 μM, singlicate

Sequence of CDK12wt/CycK (Q9NYV4 whole entry): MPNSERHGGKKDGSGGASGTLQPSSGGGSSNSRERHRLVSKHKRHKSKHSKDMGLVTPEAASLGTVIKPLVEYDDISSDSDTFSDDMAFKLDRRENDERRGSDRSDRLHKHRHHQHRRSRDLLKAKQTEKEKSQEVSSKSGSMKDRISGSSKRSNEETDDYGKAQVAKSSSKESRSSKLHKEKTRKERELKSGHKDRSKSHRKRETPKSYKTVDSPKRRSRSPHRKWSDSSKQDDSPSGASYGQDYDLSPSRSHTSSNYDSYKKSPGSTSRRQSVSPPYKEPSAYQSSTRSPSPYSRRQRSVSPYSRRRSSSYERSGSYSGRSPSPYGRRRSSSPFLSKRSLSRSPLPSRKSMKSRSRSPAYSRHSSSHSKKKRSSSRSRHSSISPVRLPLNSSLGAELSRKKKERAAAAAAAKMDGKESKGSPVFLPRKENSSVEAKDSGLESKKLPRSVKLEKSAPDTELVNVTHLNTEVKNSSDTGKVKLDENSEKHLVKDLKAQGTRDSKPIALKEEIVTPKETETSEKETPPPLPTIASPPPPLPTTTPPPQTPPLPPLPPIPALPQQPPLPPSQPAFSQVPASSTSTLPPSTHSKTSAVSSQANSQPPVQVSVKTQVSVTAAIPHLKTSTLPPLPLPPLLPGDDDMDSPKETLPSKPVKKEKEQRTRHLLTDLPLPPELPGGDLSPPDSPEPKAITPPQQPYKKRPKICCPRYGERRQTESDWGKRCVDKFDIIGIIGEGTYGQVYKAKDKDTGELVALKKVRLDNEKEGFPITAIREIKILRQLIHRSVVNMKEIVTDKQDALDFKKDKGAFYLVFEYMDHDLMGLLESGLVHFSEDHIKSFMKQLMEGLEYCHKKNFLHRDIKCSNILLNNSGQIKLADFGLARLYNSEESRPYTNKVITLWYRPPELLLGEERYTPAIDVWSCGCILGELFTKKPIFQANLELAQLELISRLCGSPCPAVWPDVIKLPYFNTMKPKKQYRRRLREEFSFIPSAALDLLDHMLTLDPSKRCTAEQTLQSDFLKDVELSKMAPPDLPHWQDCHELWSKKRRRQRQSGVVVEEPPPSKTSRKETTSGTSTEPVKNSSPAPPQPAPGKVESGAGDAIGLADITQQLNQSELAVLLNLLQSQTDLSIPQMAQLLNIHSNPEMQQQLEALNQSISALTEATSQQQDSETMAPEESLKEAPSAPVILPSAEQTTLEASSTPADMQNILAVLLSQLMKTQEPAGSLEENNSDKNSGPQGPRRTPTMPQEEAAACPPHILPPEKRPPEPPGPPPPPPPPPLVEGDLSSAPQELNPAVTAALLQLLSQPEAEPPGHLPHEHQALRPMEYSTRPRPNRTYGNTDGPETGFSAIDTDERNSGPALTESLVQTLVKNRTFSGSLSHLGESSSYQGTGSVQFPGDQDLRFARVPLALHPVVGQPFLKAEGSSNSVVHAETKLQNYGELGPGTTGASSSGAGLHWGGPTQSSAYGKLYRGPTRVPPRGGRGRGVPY
Sequence of CDK12wt/CycK (O75909 whole entry partner): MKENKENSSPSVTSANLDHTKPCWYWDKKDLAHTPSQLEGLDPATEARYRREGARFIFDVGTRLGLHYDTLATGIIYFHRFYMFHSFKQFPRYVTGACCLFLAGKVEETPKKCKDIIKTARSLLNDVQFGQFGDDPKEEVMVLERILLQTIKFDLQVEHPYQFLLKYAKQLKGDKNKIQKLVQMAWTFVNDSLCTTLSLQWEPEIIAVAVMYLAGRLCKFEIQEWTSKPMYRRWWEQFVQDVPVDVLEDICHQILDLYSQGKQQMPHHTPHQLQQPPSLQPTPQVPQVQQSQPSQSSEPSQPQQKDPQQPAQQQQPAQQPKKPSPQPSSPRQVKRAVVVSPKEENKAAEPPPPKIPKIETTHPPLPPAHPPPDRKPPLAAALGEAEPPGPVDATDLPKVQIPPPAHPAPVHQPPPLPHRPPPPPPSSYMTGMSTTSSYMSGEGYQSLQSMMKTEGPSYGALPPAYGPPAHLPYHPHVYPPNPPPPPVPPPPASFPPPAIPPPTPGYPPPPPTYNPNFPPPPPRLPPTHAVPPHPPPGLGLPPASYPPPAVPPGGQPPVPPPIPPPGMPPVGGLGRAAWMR
Sequence of CDK7/CycH/MAT1 (P50613 whole entry): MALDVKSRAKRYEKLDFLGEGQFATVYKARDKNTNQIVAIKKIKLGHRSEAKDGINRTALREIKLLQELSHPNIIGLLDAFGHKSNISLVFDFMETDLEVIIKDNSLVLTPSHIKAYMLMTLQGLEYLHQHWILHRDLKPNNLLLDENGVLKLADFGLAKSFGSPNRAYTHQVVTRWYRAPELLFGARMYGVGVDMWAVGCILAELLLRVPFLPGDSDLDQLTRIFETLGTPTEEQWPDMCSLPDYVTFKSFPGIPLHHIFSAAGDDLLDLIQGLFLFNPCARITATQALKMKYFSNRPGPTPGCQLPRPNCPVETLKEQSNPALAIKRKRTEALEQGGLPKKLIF
Sequence of CDK7/CycH/MAT1 (P51946 whole entry partner): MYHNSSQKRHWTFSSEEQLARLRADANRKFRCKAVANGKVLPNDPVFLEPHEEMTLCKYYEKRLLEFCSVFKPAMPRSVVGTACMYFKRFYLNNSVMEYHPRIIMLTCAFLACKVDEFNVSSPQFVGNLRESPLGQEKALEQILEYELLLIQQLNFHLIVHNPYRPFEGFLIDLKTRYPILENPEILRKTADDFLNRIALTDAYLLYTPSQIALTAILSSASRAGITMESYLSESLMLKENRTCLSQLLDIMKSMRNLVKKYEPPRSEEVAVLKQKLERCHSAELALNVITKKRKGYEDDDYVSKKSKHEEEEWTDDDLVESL
Sequence of CDK7/CycH/MAT1 (P51948 whole entry partner): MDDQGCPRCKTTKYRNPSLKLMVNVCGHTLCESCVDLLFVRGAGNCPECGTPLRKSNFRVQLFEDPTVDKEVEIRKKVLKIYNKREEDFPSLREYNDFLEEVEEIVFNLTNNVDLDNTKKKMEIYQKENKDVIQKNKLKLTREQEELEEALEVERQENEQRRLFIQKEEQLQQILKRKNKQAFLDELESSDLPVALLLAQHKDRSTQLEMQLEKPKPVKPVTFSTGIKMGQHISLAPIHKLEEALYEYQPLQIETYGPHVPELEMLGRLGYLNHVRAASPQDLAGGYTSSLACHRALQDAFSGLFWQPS
Sequence of HIPK2 (Q9H2X6 whole entry): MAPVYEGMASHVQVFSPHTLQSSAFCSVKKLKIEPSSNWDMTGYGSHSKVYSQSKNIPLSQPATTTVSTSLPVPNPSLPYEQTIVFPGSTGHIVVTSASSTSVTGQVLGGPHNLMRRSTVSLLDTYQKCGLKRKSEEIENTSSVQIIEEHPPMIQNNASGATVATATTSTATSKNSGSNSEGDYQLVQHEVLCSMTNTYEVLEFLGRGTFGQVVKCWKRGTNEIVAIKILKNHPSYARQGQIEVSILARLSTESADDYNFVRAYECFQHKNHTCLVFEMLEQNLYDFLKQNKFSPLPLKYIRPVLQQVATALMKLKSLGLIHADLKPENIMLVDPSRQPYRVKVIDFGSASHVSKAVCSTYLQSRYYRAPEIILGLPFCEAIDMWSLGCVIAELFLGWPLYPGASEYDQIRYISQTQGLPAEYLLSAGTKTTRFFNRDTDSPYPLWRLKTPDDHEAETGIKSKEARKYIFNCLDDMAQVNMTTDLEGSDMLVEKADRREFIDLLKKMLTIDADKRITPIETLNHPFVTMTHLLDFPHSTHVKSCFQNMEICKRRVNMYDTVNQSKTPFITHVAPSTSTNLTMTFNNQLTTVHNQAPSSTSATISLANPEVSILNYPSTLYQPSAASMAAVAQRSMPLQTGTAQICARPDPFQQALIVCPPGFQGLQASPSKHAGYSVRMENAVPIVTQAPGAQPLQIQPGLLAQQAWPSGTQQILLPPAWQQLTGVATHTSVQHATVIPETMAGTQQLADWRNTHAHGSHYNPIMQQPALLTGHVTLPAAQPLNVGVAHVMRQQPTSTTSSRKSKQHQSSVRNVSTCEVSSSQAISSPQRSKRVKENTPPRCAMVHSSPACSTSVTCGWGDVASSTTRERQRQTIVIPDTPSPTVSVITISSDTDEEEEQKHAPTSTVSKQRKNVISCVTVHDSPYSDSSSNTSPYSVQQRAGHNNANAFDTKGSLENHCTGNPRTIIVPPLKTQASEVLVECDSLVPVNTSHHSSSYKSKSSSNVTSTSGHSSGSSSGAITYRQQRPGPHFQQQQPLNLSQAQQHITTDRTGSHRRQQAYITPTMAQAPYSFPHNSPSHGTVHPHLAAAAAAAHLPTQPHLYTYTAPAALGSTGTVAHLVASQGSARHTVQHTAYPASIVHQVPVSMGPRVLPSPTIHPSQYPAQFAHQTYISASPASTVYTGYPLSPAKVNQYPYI
T1 sequence (P31749 whole entry, the tested form may be a part): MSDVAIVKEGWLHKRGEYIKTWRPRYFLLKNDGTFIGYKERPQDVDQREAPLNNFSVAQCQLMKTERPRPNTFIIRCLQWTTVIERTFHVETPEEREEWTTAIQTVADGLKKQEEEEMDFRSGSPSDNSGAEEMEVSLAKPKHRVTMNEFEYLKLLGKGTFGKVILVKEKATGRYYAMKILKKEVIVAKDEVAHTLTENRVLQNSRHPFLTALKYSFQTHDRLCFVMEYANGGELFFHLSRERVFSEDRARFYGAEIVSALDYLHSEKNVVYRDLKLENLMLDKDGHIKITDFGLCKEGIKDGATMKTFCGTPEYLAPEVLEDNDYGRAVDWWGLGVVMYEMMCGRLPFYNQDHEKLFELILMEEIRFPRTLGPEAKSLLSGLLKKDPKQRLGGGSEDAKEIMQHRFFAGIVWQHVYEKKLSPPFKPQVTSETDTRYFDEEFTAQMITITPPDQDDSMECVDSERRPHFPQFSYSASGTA

Compound	IC50 (CDK3/CycE1) [nM]	IC50 (AKT1 aa1-480) [nM]	IC50 (CDK4/CycD3; [6]) [nM]	IC50 (PCTAIRE1/CycY) [nM]	IC50 (CDK3/CycC) [nM]	IC50 (HIPK2) [nM]	IC50 (CDK19/CycC) [nM]	IC50 (CDK2/CycA2; [6]) [nM]	IC50 (CDK2/CycE1; [6]) [nM]	IC50 (CDK8/CycC) [nM]	IC50 (CDK4/CycD1) [nM]	IC50 (CDK1/CycA2; [6]) [nM]	IC50 (DYRK1A) [nM]	cell cycle arrest by DNA content [1]	IC50 (CDK7/CycH/MAT1) [nM]	GI50 ([2]; Homo sapiens, U-87 MG) [nM]	GI50 ([3]; Homo sapiens, MCF10) [nM]	IC50 (CDK6/CycD1) [nM]	IC50 (ERK1) [nM]	IC50 (CDK12wt/CycK) [nM]	also measured
O=c1ccc2cnc(Nc3ccc(N4CCC(OCC5(CO)COC5)CC4)cc3)nc2n1[C@@H]1CC2CCC1C2 (stereo partly drawn) [PS016, 8-((2R)-bicyclo[2.2.1]heptan-2-yl)-2-((4-(4-((3-(hydroxymethyl)oxetan-3-yl)methoxy)piperidin-1-yl)phenyl)amino)pyrido[2,3-d]pyrimidin-7(8H)-one]	93.4	> 50000	20.8	2020	555	> 50000	2790	49.7	71.7	37.9	8.86	1360	28800	induced G2/M arrest	2370	1120	130	7.42	10700	339	GI50 ([4]; Homo sapiens, MDA-MB-231): 1230 nM; GI50 ([5]; Homo sapiens, NCI-H460): 440 nM; IC50 (CDK5/p35NCK; [6]): 255 nM; IC50 (CDK5/p25NCK; [6]): 652 nM
O=c1ccc2cnc(Nc3ccc(N4CCC(CCCO)CC4)c(F)c3)nc2n1[C@@H]1CC2CCC1C2 (stereo partly drawn) [PS003, 8-((2R)-bicyclo[2.2.1]heptan-2-yl)-2-((3-fluoro-4-(4-(3-hydroxypropyl)piperidin-1-yl)phenyl)amino)pyrido[2,3-d]pyrimidin-7(8H)-one]	1130	> 50000	376	43800	3950	> 50000	19200	810	545	677	150	7860	> 50000	induced G2/M arrest	20000	4100	7500	73.2	> 50000	3180	GI50 ([4]; Homo sapiens, MDA-MB-231): 3900 nM; GI50 ([5]; Homo sapiens, NCI-H460): 1600 nM; IC50 (CDK5/p35NCK; [6]): 1920 nM; IC50 (CDK5/p25NCK; [6]): 4660 nM
O=c1ccc2cnc(Nc3ccc(N4CCC(CCCO)CC4)cc3)nc2n1C1CC2CCC1C2 (stereo not drawn) [PD-0183812, reference compound]	885	48000		43500	5210	> 50000	17400			256	31.6		31900	arrested cells with a 4N DNA content	45400			19.9	29600	3160	IC50 (CDK4/CycD3): 71.8 nM; IC50 (CDK2/CycA2): 341 nM; IC50 (CDK2/CycE1): 122 nM; IC50 (CDK1/CycA2): 28800 nM; GI50 [2]: 7450 nM; GI50 [3]: 3300 nM; GI50 [4]: 2150 nM; GI50 [5]: 1570 nM; IC50 (CDK5/p35NCK): 1840 nM; IC50 (CDK5/p25NCK): 30100 nM
CC(=O)c1c(C)c2cnc(Nc3ccc(N4CCC(CCCO)CC4)cc3)nc2n([C@@H]2CC3CCC2C3)c1=O (stereo partly drawn) [PS008, 6-acetyl-8-((2R)-bicyclo[2.2.1]heptan-2-yl)-2-((4-(4-(3-hydroxypropyl)piperidin-1-yl)phenyl)amino)-5-methylpyrido[2,3-d]pyrimidin-7(8H)-one]	25900	> 50000	261	35900	1860	5580	25700	3520	3640	27300	98.9	39100	11800	induced accumulation of cells in G0/G1	11800	2440	700	19.5	949	28100	GI50 ([4]; Homo sapiens, MDA-MB-231): 4500 nM; GI50 ([5]; Homo sapiens, NCI-H460): 2570 nM; IC50 (CDK5/p35NCK; [6]): 3680 nM; IC50 (CDK5/p25NCK; [6]): 9430 nM
O=c1ccc2cnc(Nc3ccc(N4CCNCC4)cc3)nc2n1[C@@H]1CC2CCC1C2 (stereo partly drawn) [PS007, 8-((2R)-bicyclo[2.2.1]heptan-2-yl)-2-((4-(piperazin-1-yl)phenyl)amino)pyrido[2,3-d]pyrimidin-7(8H)-one]	11.9	11600	2.25	4.04	40.1	5560	288	17.1	7.8	307	< 1.5	208	1180	accumulation of cells both in G1 and G2/M phases	91.1	40	70	< 1.5	2750	25.8	cell death (sub-G1 accumulation) [1]: led to cell death; GI50 ([4]; Homo sapiens, MDA-MB-231): 150 nM; GI50 ([5]; Homo sapiens, NCI-H460): 160 nM; IC50 (CDK5/p35NCK; [6]): 15.9 nM; IC50 (CDK5/p25NCK; [6]): 52.3 nM
O=c1ccc2cnc(Nc3ccc(N4CCC(CCCO)CC4)cc3F)nc2n1[C@@H]1CC2CCC1C2 (stereo partly drawn) [PS002, 8-((2R)-bicyclo[2.2.1]heptan-2-yl)-2-((2-fluoro-4-(4-(3-hydroxypropyl)piperidin-1-yl)phenyl)amino)pyrido[2,3-d]pyrimidin-7(8H)-one]	17200	> 50000	3840	> 50000	27100	> 50000	24900	19700	7290	122	1270	34000	> 50000		40700	> 50000	34600	485	47500	28400	GI50 ([4]; Homo sapiens, MDA-MB-231): 35200 nM; GI50 ([5]; Homo sapiens, NCI-H460): 18000 nM; IC50 (CDK5/p35NCK; [6]): 38600 nM; IC50 (CDK5/p25NCK; [6]): > 50000 nM
